Key:
[1] = system: Puccinia recondita f. Sp. Tritici; experiment: Fungicidal activity against Puccinia recondita f. sp. tritici / wheat / leaf disc curative (brown rust); assay type: in vivo; settings: foliar, 24 h, 200 ppm in the applied formulation, wheat leaf segments, curative (applied 1 day after inoculation), compared to untreated control leaf disks, read-out: disease control
Summary of the method: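 Curative test on wheat leaf segments (cv. Kanzler) on agar, inoculated with spore suspension and held dark at 19° C, 75% RH; formulated compound in water applied 1 day after inoculation. Incubated at 19° C, 75% RH, 12 h light/12 h dark; percent disease control versus untreated scored 6 to 8 days after application.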

[2] = system: Puccinia recondita f. Sp. Tritici; experiment: Fungicidal activity against Puccinia recondita f. sp. tritici / wheat / leaf disc preventative (brown rust); assay type: in vivo; settings: foliar, 200 ppm in the applied formulation, wheat leaf segments, preventative, compared to untreated control leaf disks, read-out: disease control
Summary of the method: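 Percent disease control relative to untreated check segments is scored once disease develops, 7 to 9 days after application. Wheat cv. Kanzler segments receive compound spray (200 ppm in formulation) one day before spore inoculation, then sit at 19° C. and 75% rh under 12 h light/12 h dark.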

[3] = system: Glomerella lagenarium (Colletotrichum lagenarium); experiment: Fungicidal activity against Glomerella lagenarium (Colletotrichum lagenarium) liquid culture / cucumber / preventative (anthracnose); assay type: cell-based; settings: Colletotrichum orbiculare; 20 ppm in the applied formulation; liquid culture (PDB), growth inhibition measured photometrically after 3 to 4 days; compared to untreated control; read-out: disease control
Summary of the method: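 Percent activity against the untreated check was derived from photometric growth measurements made 2 to 7 days after conidia in potato dextrose broth were combined with compound at 20 ppm. Cultures were kept dark at 24 °C and 96% humidity.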

Phakopsora Pachyrhizi = experiment: Fungicidal activity against Phakopsora pachyrhizi / soybean / leaf disc preventative (Asian soybean rust); assay type: in vivo; settings: foliar, 200 ppm in the applied formulation, soybean leaf disks, compared to untreated control leaf disks, read-out: disease control
Summary of the method: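 Scored 12 to 14 days post-application as percent control relative to untreated check discs, rust spores were sprayed under the disc one day after compound treatment. Incubation: 20°C, 75% rh, first 24–36 h in darkness, then 12 h daily light; discs kept on water agar.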

COCC(=O)N(CCO)Cc1ccc(-c2noc(C(F)(F)F)n2)cc1 [Compound 1.610, N-(2-hydroxyethyl)-2-methoxy-N-[[4-[5-(trifluoromethyl)-1,2,4-oxadiazol-3-yl]phenyl]methyl]-acetamide]
≥ 80%: pest or weed control at 200 ppm [1] | pest or weed control at 200 ppm [2] | inhibition of growth at 20 ppm [3] | pest or weed control at 200 ppm (Phakopsora Pachyrhizi)

CCCOC(=O)N(Cc1ccc(-c2noc(C(F)(F)F)n2)cc1)OC [Compound 2.4, propyl N-methoxy-N-[[4-[5-(trifluoromethyl)-1,2,4-oxadiazol-3-yl]phenyl]methyl]-carbamate]
≥ 80%: pest or weed control at 200 ppm [1] | pest or weed control at 200 ppm [2] | inhibition of growth at 20 ppm [3] | pest or weed control at 200 ppm (Phakopsora Pachyrhizi)

O=C(C1CSC1)N(Cc1ccc(-c2noc(C(F)(F)F)n2)cc1)C1CC1 [Compound 1.104, N-cyclopropyl-N-[[4-[5-(trifluoromethyl)-1,2,4-oxadiazol-3-yl]phenyl]methyl]-thietane-3-carboxamide]
≥ 80%: pest or weed control at 200 ppm [1] | pest or weed control at 200 ppm [2] | inhibition of growth at 20 ppm [3] | pest or weed control at 200 ppm (Phakopsora Pachyrhizi)

CON(Cc1ccc(-c2noc(C(F)(F)F)n2)cc1)C(=O)CC1CC1(F)F (centres unmarked) [Compound 1.64, 2-(2.2-difluorocyclopropyl)-N-methoxy-N-[[4-[5-(trifluoromethyl)-1,2,4-oxadiazol-3-yl]phenyl]methyl]-acetamide]
≥ 80%: pest or weed control at 200 ppm [1] | pest or weed control at 200 ppm [2] | inhibition of growth at 20 ppm [3] | pest or weed control at 200 ppm (Phakopsora Pachyrhizi)

CON(Cc1ccc(-c2noc(C(F)(F)F)n2)cc1)C(=O)C1(C)CC1(Cl)Cl (centres unmarked) [Compound 1.32, 2,2-dichloro-N-methoxy-1-methyl-N-[[4-[5-(trifluoromethyl)-1,2,4-oxadiazol-3-yl]phenyl]methyl]-cyclopropane-carboxamide]
≥ 80%: pest or weed control at 200 ppm [1] | pest or weed control at 200 ppm [2] | inhibition of growth at 20 ppm [3] | pest or weed control at 200 ppm (Phakopsora Pachyrhizi)

CCC(=O)OCCN(Cc1ccc(-c2noc(C(F)(F)F)n2)cc1)C(=O)CC [Compound 1.590, 2-[propanoyl-[[4-[5-(trifluoromethyl)-1,2,4-oxadiazol-3-yl]phenyl]methyl]-amino]ethyl propanoate]
≥ 80%: pest or weed control at 200 ppm [1] | pest or weed control at 200 ppm [2] | inhibition of growth at 20 ppm [3] | pest or weed control at 200 ppm (Phakopsora Pachyrhizi)

CCN(Cc1ccc(-c2noc(C(F)(F)F)n2)cc1)C(=O)C1CC1(F)F (centres unmarked) [Compound 1.504, N-ethyl-2,2-difluoro-N-[[4-[5-(trifluoromethyl)-1,2,4-oxadiazol-3-yl]phenyl]methyl]-cyclopropane-carboxamide]
≥ 80%: pest or weed control at 200 ppm [1] | pest or weed control at 200 ppm [2] | inhibition of growth at 20 ppm [3] | pest or weed control at 200 ppm (Phakopsora Pachyrhizi)

CON(Cc1ccc(-c2noc(C(F)(F)F)n2)c(F)c1)C(=O)C1CCCO1 (centres unmarked) [Compound 1.578, N-[[3-fluoro-4-[5-(trifluoromethyl)-1,2,4-oxadiazol-3-yl]phenyl]methyl]-N-methoxy-tetrahydrofuran-2-carboxamide]
≥ 80%: pest or weed control at 200 ppm [1] | pest or weed control at 200 ppm [2] | inhibition of growth at 20 ppm [3] | pest or weed control at 200 ppm (Phakopsora Pachyrhizi)

C=CCN(Cc1ccc(-c2noc(C(F)(F)F)n2)cc1)C(=O)CC [Compound 1.477, N-allyl-N-[[4-[5-(trifluoromethyl)-1,2,4-oxadiazol-3-yl]phenyl]methyl]-propanamide]
≥ 80%: pest or weed control at 200 ppm [1] | pest or weed control at 200 ppm [2] | inhibition of growth at 20 ppm [3] | pest or weed control at 200 ppm (Phakopsora Pachyrhizi)

CON(Cc1ccc(-c2noc(C(F)(F)F)n2)cc1)C(=O)c1ccccc1Cl [Compound 1.44, 2-chloro-N-methoxy-N-[[4-[5-(trifluoromethyl)-1,2,4-oxadiazol-3-yl]phenyl]methyl]-benzamide]
≥ 80%: pest or weed control at 200 ppm [1] | pest or weed control at 200 ppm [2] | inhibition of growth at 20 ppm [3] | pest or weed control at 200 ppm (Phakopsora Pachyrhizi)

COCCN(Cc1ccc(-c2noc(C(F)(F)F)n2)cc1)C(=O)C1(C)CC1 [Compound 1.344, N-(2-methoxyethyl)-1-methyl-N-[[4-[5-(trifluoromethyl)-1,2,4-oxadiazol-3-yl]phenyl]methyl]-cyclopropane-carboxamide]
≥ 80%: pest or weed control at 200 ppm [1] | pest or weed control at 200 ppm [2] | inhibition of growth at 20 ppm [3] | pest or weed control at 200 ppm (Phakopsora Pachyrhizi)

O=C(c1ccccc1Cl)N(Cc1ccc(-c2noc(C(F)(F)F)n2)cc1)C1COC1 [Compound 1.740, 2-chloro-N-(oxetan-3-yl)-N-[[4-[5-(trifluoromethyl)-1,2,4-oxadiazol-3-yl]phenyl]methyl]-benzamide]
≥ 80%: pest or weed control at 200 ppm [1] | pest or weed control at 200 ppm [2] | inhibition of growth at 20 ppm [3] | pest or weed control at 200 ppm (Phakopsora Pachyrhizi)

O=C(CCC(F)(F)F)N(Cc1ccc(-c2noc(C(F)(F)F)n2)cc1)C1CC1 [Compound 1.101, N-cyclopropyl-4,4,4-trifluoro-N-[[4-[5-(trifluoromethyl)-1,2,4-oxadiazol-3-yl]phenyl]methyl]-butanamide]
≥ 80%: pest or weed control at 200 ppm [1] | pest or weed control at 200 ppm [2] | inhibition of growth at 20 ppm [3] | pest or weed control at 200 ppm (Phakopsora Pachyrhizi)

C=CCN(Cc1ccc(-c2noc(C(F)(F)F)n2)cc1)C(=O)C1(C)COC1 [Compound 1.488, N-allyl-3-methyl-N-[[4-[5-(trifluoromethyl)-1,2,4-oxadiazol-3-yl]phenyl]methyl]-oxetane-3-carboxamide]
≥ 80%: pest or weed control at 200 ppm [1] | pest or weed control at 200 ppm [2] | inhibition of growth at 20 ppm [3] | pest or weed control at 200 ppm (Phakopsora Pachyrhizi)

C=CCN(Cc1ccc(-c2noc(C(F)(F)F)n2)cc1)C(=O)COC [Compound 1.479, N-allyl-2-methoxy-N-[[4-[5-(trifluoromethyl)-1,2,4-oxadiazol-3-yl]phenyl]methyl]-acetamide]
≥ 80%: pest or weed control at 200 ppm [1] | pest or weed control at 200 ppm [2] | inhibition of growth at 20 ppm [3] | pest or weed control at 200 ppm (Phakopsora Pachyrhizi)

N#CC1(C(=O)N(Cc2ccc(-c3noc(C(F)(F)F)n3)cc2)CC(F)(F)F)CC1 [Compound 1.702, 1-cyano-N-(2,2,2-trrfluoroethyl)-N-[[4-[5-(trifluoromethyl)-1,2,4-oxadiazol-3-yl]phenyl]methyl]-cyclopropane-carboxamide]
≥ 80%: pest or weed control at 200 ppm [1] | pest or weed control at 200 ppm [2] | inhibition of growth at 20 ppm [3] | pest or weed control at 200 ppm (Phakopsora Pachyrhizi)

CCC(=O)N(Cc1ccc(-c2noc(C(F)(F)F)n2)cc1)Cc1ccco1 [Compound 1.457, N-(2-furylmethyl)-N-[[4-[5-(trifluoromethyl)-1,2,4-oxadiazol-3-yl]phenyl]methyl]-propanamide]
≥ 80%: pest or weed control at 200 ppm [1] | pest or weed control at 200 ppm [2] | inhibition of growth at 20 ppm [3] | pest or weed control at 200 ppm (Phakopsora Pachyrhizi)

CCCN(Cc1ccc(-c2noc(C(F)(F)F)n2)cc1)C(=O)C1CCOC1 (centres unmarked) [Compound 1.654, N-propyl-N-[[4-[5-(trifluoromethyl)-1,2,4-oxadiazol-3-yl]phenyl]methyl]-tetrahydrofuran-3-carboxamide]
≥ 80%: pest or weed control at 200 ppm [1] | pest or weed control at 200 ppm [2] | inhibition of growth at 20 ppm [3] | pest or weed control at 200 ppm (Phakopsora Pachyrhizi)

CC=CCC(=O)N(Cc1ccc(-c2noc(C(F)(F)F)n2)cc1)C1CC1 [Compound 1.114, N-cyclopropyl-N-[[4-[5-(trifluoromethyl)-1,2,4-oxadiazol-3-yl]phenyl]methyl]pent-3-enamide]
≥ 80%: pest or weed control at 200 ppm [1] | pest or weed control at 200 ppm [2] | inhibition of growth at 20 ppm [3] | pest or weed control at 200 ppm (Phakopsora Pachyrhizi)

CCC(=O)N(Cc1c(F)cc(-c2noc(C(F)(F)F)n2)cc1F)OC [Compound 1.594, N-[[2,6-difluoro-4-[5-(trifluoromethyl)-1,2,4-oxadiazol-3-yl]phenyl]methyl]-N-methoxy-propanamide]
≥ 80%: pest or weed control at 200 ppm [1] | pest or weed control at 200 ppm [2] | inhibition of growth at 20 ppm [3] | pest or weed control at 200 ppm (Phakopsora Pachyrhizi)

From US11180462B2, “Microbiocidal oxadiazole derivatives” (SYNGENTA PARTICIPATIONS AG, priority 2015, dated 2021)
